Laboratory results from ChEMBL document CHEMBL1201862, “PubChem BioAssay data set” (2004).
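Step 1: Grow cells in 96-well plates. Step 2: Expose to compound for 48 hours at 5 concentrations. Step 3: Interpolate endpoints linearly; if unreached, use highest concentration. Abbreviation: GI50, concentration required for 50% inhibition of growth.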 Active and inactive are the calls of the source. No stated cut-off is given here; in the data, active = GI50 up to about 1.1 µM and inactive = higher.

Experiments:
Assay in all cases: NCI tumour cell line growth inhibition, 48 h
DMS-114 = test system: DMS-114
HOP-18 = test system: HOP-18
KM-20L2 = test system: KM-20L2
M19-MEL = test system: M19-MEL
RXF 631 = test system: RXF 631
SNB-78 = test system: SNB-78
XF498 = test system: XF498
MDA-N = test system: MDA-N
PC-3 = test system: PC-3

Measured: GI50

CCCCCCCCCCCCCCCCOP(=O)(O)Oc1ccc(/C=C\c2ccc(OP(=O)(O)OCCCCCCCCCCCCCCCC)cc2)cc1
inactive: DMS-114 10.1 µM | HOP-18 70.3 µM | KM-20L2 67.3 µM | M19-MEL 38.7 µM | RXF 631 48.5 µM | SNB-78 20.1 µM

O=C(C=C1SCCS1)/C=C\c1ccc(Cl)cc1
inactive: M19-MEL > 100 µM | RXF 631 > 100 µM | SNB-78 > 100 µM | XF498 73.8 µM

CC(=O)O[C@H]1CCC2[C@@H]3CC[C@]4(C)CC(=O)C=C[C@]4(C)C3CC[C@@]21C (stereo partly specified)
inactive: DMS-114 11.3 µM | HOP-18 > 38.8 µM | KM-20L2 19.4 µM | M19-MEL 18.8 µM | MDA-N 26.4 µM | PC-3 29.4 µM | RXF 631 > 50.9 µM | SNB-78 14.9 µM

CC12C/C(=C\c3ccccc3)C(=O)C3C1CCCC32
inactive: DMS-114 41.6 µM | HOP-18 > 100 µM | KM-20L2 63.1 µM | M19-MEL 58.6 µM | RXF 631 > 100 µM | XF498 > 100 µM

O=c1c2cc(Br)cc(Br)c2nc(CCCl)n1CCO
inactive: DMS-114 42.4 µM | KM-20L2 > 100 µM | M19-MEL 94.8 µM | RXF 631 > 100 µM | SNB-78 > 100 µM | XF498 41.7 µM

CC1=C(C(=O)CC(=O)C(=O)Nc2ccccc2C(F)(F)F)Sc2ccccc2N1
inactive: DMS-114 32.6 µM | KM-20L2 > 100 µM | RXF 631 86.5 µM | SNB-78 47.3 µM | XF498 31.5 µM

O=C(CC1(O)C(=O)Nc2c(Cl)cc(Cl)cc21)c1cccc2ccccc12 (stereo unspecified)
inactive: DMS-114 17.9 µM | HOP-18 17.9 µM | KM-20L2 18.9 µM | RXF 631 18.1 µM | SNB-78 26.7 µM | XF498 20.4 µM

CCOC(OC(C)=O)[C@@H]1C=C[C@H](C)N(c2ccc([N+](=O)[O-])cc2)O1 (stereo partly specified)
inactive: DMS-114 4.69 µM | HOP-18 8.79 µM | KM-20L2 8.55 µM | M19-MEL 2.14 µM | RXF 631 4.98 µM | SNB-78 7.48 µM | XF498 14.6 µM

Nc1ccccc1C(=O)/C=C/c1ccccc1O
inactive: DMS-114 29.8 µM | HOP-18 8.34 µM | KM-20L2 > 100 µM | M19-MEL 72.3 µM | RXF 631 55.8 µM | SNB-78 41.5 µM | XF498 > 100 µM

Cn1c(=O)c2ccc(-c3ccc(Br)cc3)nc2n(C)c1=O
inactive: DMS-114 > 100 µM | HOP-18 > 100 µM | M19-MEL > 100 µM | RXF 631 > 100 µM | SNB-78 85.3 µM | XF498 > 100 µM
